In patent publication US8716528B2, “Aryloxy amine compounds and their use as sodium channel modulators” (Howard Florey Institute, priority 2007, dated 2014):
pIC50: −log10 of the molar value. “And” between values parts separate entries of the source, which are not always exact repeats. Equal values may be shown once. “Also recorded” adds a separate entry of the source. Marks after values point to notes of the source that are not given here.

Experiments:
[1] = biological target: Sodium Channel Binding Site 2 in Rat Brain Membranes; conditions: 3H-batrachotoxinin 5 nM, 37° C. 60 minutes, read-out: IC50 (inhibition of specific binding of 3H-batrachotoxinin)
[2] = system: Male Sprague-Dawley rats, L5 nerve ligated and cut; experiment: Rat L5 nerve cut model of neuropathic pain, Von Frey filament withdrawal threshold (allodynia); assay type: in vivo; conditions: for grams of force needed to withdraw left limb: left hind paw, nerve cut; for grams of force needed to withdraw left limb / grams of force needed to withdraw right limb: individual rats #17-#20; for effect on allodynia: left paw, 4 rats; for grams of force needed to withdraw right limb: right hind paw, nerve intact
Method: The following method is based on the method published by Chaplan et al, 1994. Male Sprague-Dawley rats from one litter were weaned when 19 days old and acclimatized for the next two days in the Animal House where the experiment was to be carried out. From days 21 to 25, rats were tested using a set of Von Frey monofilaments to test the mechanical withdrawal threshold of the hindpaws. The monofilaments were applied in increasing force until the rat withdrew the hind paw being tested. […] Rats were anaesthetized with a halothane/oxygen (5:95) gas mixture and a dorsal midline incision was made on the rat's lower back to expose the left lumbar region either side of the hip. Bone was clipped away to expose the L4 and L5 nerves distal to their emergence from the intervertebral foramina. The L5 nerve was then isolated using a glass hook, ligated and cut on the peripheral side of the ligation. The incision was then closed with suture threads and the anaesthetic gas discontinued. The next day rats underwent testing with the graded Von Frey filaments to the hind paws to determine if allodynia was present in the left paw as compared to the right hind paw. Testing was repeated on these rats until they were 28 days old. […] Rats were then tested with graded Von Frey filaments at 45 minutes and 90 minutes after injection in order to determine if allodynia had been blocked.

[3] = system: Male Hooded Wistar rats, spinal cord injury (SCI); experiment: Reversible spinal cord injury model: BBB open-field locomotor score; assay type: in vivo, rat; conditions: i.p. 3 h after injury and twice daily, 15 days; versus vehicle treated controls
Method: (§1) Male Hooded Wistar rats were anesthetized (2% isoflurane/98% oxygen), and laminectomy performed at spinal level T12. An inflatable balloon catheter was inserted rostral, underneath the vertebra, to T10 and inflated for 5 minutes, causing reversible paraplegia (Feldblum, et al., 2000). […] Rats had almost complete functional recovery by 15 d. Compound 1 (15 nmol/g and 60 nmol/g), mexiletine (60 nmol/g) and vehicle (5 ml/kg) were administered i.p, at 3 h after the injury and twice daily thereafter, until killed. Behavioural tests were conducted every 3 days. At 15 d post-injury, rats were anesthetized and transcardially perfused, to fix the spinal cords. Sections were cut and processed to examine the size of the cyst and modulatory effects of treatments or control on lesion formation.
BBB scale: Effects of Compound 1 and mexiletine treatment on the time course of functional recovery, following SCI, assessed with the BBB open-field locomotor score. […] Each rat acted as its own control, and results after SCI compared with pre-injury scores (0 h after SCI). Data are mean±SEM. ANOVA followed by Bonferroni post-test: [F(24,273)=10.57, P<0.0001], *P<0.05, **P<0.01, ***P<0.001 Compound 1 (60 nmol/g) versus the SCI+saline controls at the same time; †P<0.05 Compound 1 (15 nmol/g) or mexiletine (60 nmol/g) versus SCI+saline controls at the same time.

[4] = system: Male Hooded Wistar rats, spinal cord injury (SCI); experiment: Reversible spinal cord injury model: horizontal ladder test; assay type: in vivo, rat; conditions: versus SCI+saline controls at the same time
Method: as §1
Ladder test: In the horizontal ladder test, rats are placed onto a beam which is randomly missing rungs, this prevents rats from adapting and compensating for any deficits following SCI. […] The results are depicted in FIG. 4. […] Data is expressed as the percentage of foot misplacements made of the total number of steps taken, using a combined score for both hindlimbs. […] Each rat acted as its own control, and results compared with pre-injury scores (0 h after SCI). […]

[5] = system: Male Hooded Wistar rats, spinal cord injury (SCI); experiment: Reversible spinal cord injury model: ledged beam task; assay type: in vivo, rat; conditions: for use of the support ledge, ledged beam task: after SCI, versus saline-treated controls
Method: as §1
Ledged beam: Effects of Compound 1 and mexiletine, and SCI+saline controls on recovery of function following spinal cord compression injury as assessed by the number of steps using the support ledge on the ledged beam task. The results are depicted in FIG. 5. Sham-SCI rats walked the length of the ledged beam with approximately 10% of steps made on the supporting ledge. […] Data is expressed as ledge use/errors made as a percentage of total steps taken with both hindlimbs after SCI. Each rat acted as its own control, and results compared with pre-injury scores (0 h after SCI). ANOVA followed by Bonferroni post-test: [F(24,273)=5.12, P<0.0001], *P<0.05, **P<0.01, ***P<0.001 Compound 1 (60 nmol/g) versus the SCI+saline controls at the same time; †P<0.05 Compound 1 (15 nmol/g) versus SCI+saline controls at the same time. […] Data are mean±SEM. n=6-11 rats in each group.

[6] = system: Male Hooded Wistar rats, spinal cord injury (SCI); experiment: Reversible spinal cord injury model: volume of damage from H & E stained sections; assay type: in vivo, rat; conditions: equivalent mole dose, compared to SCI+saline, n=4
Method: as §1
(§2) Volume of damage: Effects of treatment were measured first from H & E stained sections. […] Data are mean±SEM of measurements from n=4 rats per treatment group. Secondly, the sparing of spinal cord tissue by Compound 1 and mexiletine treatment was assessed by more detailed histological staining techniques.

[7] = system: Male Hooded Wistar rats, spinal cord injury (SCI); experiment: Reversible spinal cord injury model: percentage of white and gray matter spared at the epicentre (H & E, Luxol Fast blue, cresyl violet); assay type: in vivo, rat
Method: as §1, §2

[8] = system: Male Hooded Wistar rats, spinal cord injury (SCI); experiment: Reversible spinal cord injury model: neuronal cell body counts by NeuN immunostaining; assay type: in vivo, rat; conditions: for loss of white matter and gray matter (rostro-caudal serial sections, neuronal cell body counts): after SCI, versus saline treatment
Method: as §1, §2

[9] = +0.5 mm from epicentre, 60 nmol/g
[10] = +1 mm from epicentre, 60 nmol/g
[11] = +1.5 mm from epicentre, 60 nmol/g
[12] = +2 mm from epicentre, 60 nmol/g
[13] = +2.5 mm from epicentre, 60 nmol/g
[14] = −0.5 mm from epicentre, 60 nmol/g
[15] = −1 mm from epicentre, 60 nmol/g
[16] = −1.5 mm from epicentre, 60 nmol/g
[17] = −2 mm from epicentre, 60 nmol/g
[18] = −2.5 mm from epicentre, 60 nmol/g

Structure (SMILES): Cc1cccc(C)c1OCCCNCc1ccc(N2N=CC(C)C2=O)cc1 (stereo not shown) [Comparative A, reference compound]
- pIC50 [1]: 4.96

Structure (SMILES): Cc1cccc(C)c1OCC(C)NCc1cc(C(C)(C)C)c(O)c(C(C)(C)C)c1 (stereo not shown) [Compound 1]
- pIC50 [1]: 6.87
- grams of force needed to withdraw left limb ([2]; 45 min post i.p. 70 nmol/g): 11.44 g and 17.8 g (3×)
- grams of force needed to withdraw left limb ([2]; 90 min post i.p. 70 nmol/g): 3.7 g and 10.9 g and 17.8 g (2×)
- effect on allodynia ([2]; 45 minutes after i.p. 70 nmol/g): allodynia had been completely eliminated in 3 of the rats
- effect on allodynia ([2]; 90 minutes after i.p. 70 nmol/g): allodynia had still been eliminated in 2 rats
- grams of force needed to withdraw right limb ([2]; 45 min post i.p. 70 nmol/g): 17.8 g
- grams of force needed to withdraw right limb ([2]; 90 min post i.p. 70 nmol/g): 17.8 g
- generalized anaesthesia (response of right hindpaw to filaments) ([2]; right hindpaw, 45 or 90 minutes after injection): did not cause a generalized anaesthesia
- rate of functional recovery following SCI, BBB open-field locomotor score [3]: significantly increased the rate of recovery
- number of hind-limb foot misplacements, horizontal ladder test [4]: decreased the number of hind-limb foot misplacements
- use of the support ledge, ledged beam task [5]: significantly reduced
- volume of damage (H & E stained sections) [6]: reduced damage compared to SCI+saline
- GRAY MATTER spared, % MEAN ([7]; 15 nmol/g): 80* %
- TOTAL TISSUE spared, % MEAN ([7]; 15 nmol/g): 74.3* %
- WHITE MATTER spared, % MEAN ([7]; 15 nmol/g): 63.6* %
- GRAY MATTER spared, % MEAN ([7]; 60 nmol/g): 88.9* %
- TOTAL TISSUE spared, % MEAN ([7]; 60 nmol/g): 83.9* %
- WHITE MATTER spared, % MEAN ([7]; 60 nmol/g): 81.1* %
- No. of motor neurons Per sq mm, Mean ([8]; 0.0 mm (epicentre), 15 nmol/g): 9* Per sq mm
- No. of motor neurons Per sq mm, Mean ([8]; 0.0 mm (epicentre), 60 nmol/g): 15* Per sq mm
- No. of motor neurons Per sq mm, Mean ([8]; +0.5 mm from epicentre, 15 nmol/g): 10* Per sq mm
- No. of motor neurons Per sq mm, Mean [8, 9]: 16* Per sq mm
- No. of motor neurons Per sq mm, Mean ([8]; +1 mm from epicentre, 15 nmol/g): 14* Per sq mm
- No. of motor neurons Per sq mm, Mean [8, 10]: 22* Per sq mm
- No. of motor neurons Per sq mm, Mean ([8]; +1.5 mm from epicentre, 15 nmol/g): 25* Per sq mm
- No. of motor neurons Per sq mm, Mean [8, 11]: 29* Per sq mm
- No. of motor neurons Per sq mm, Mean ([8]; +2 mm from epicentre, 15 nmol/g): 28 Per sq mm
- No. of motor neurons Per sq mm, Mean [8, 12]: 28 Per sq mm
- No. of motor neurons Per sq mm, Mean ([8]; +2.5 mm from epicentre, 15 nmol/g): 29 Per sq mm
- No. of motor neurons Per sq mm, Mean [8, 13]: 30 Per sq mm
- loss of white matter and gray matter (rostro-caudal serial sections, neuronal cell body counts) [8]: reduced loss of both white matter and gray matter; also recorded: more effective than Mexiletine
- No. of motor neurons Per sq mm, Mean ([8]; −0.5 mm from epicentre, 15 nmol/g): 11* Per sq mm
- No. of motor neurons Per sq mm, Mean [8, 14]: 17* Per sq mm
- No. of motor neurons Per sq mm, Mean ([8]; −1 mm from epicentre, 15 nmol/g): 18* Per sq mm
- No. of motor neurons Per sq mm, Mean [8, 15]: 23* Per sq mm
- No. of motor neurons Per sq mm, Mean ([8]; −1.5 mm from epicentre, 15 nmol/g): 26 Per sq mm
- No. of motor neurons Per sq mm, Mean [8, 16]: 26 Per sq mm
- No. of motor neurons Per sq mm, Mean ([8]; −2 mm from epicentre, 15 nmol/g): 29 Per sq mm
- No. of motor neurons Per sq mm, Mean [8, 17]: 30 Per sq mm
- No. of motor neurons Per sq mm, Mean ([8]; −2.5 mm from epicentre, 15 nmol/g): 27 Per sq mm
- No. of motor neurons Per sq mm, Mean [8, 18]: 30 Per sq mm

Structure (SMILES): CC(C)(C)c1cc(CNCCCOc2c(Cl)cccc2Cl)cc(C(C)(C)C)c1O [Compound 2]
- pIC50 [1]: 6.98

Structure (SMILES): COc1cccc(OC)c1OCCCNCc1cc(C(C)(C)C)c(O)c(C(C)(C)C)c1 [Compound 3]
- pIC50 [1]: 6.97

Structure (SMILES): CC(C)c1cccc(C(C)C)c1OCCCNCc1cc(C(C)(C)C)c(O)c(C(C)(C)C)c1 [Compound 4]
- pIC50 [1]: 7.05

Structure (SMILES): CC(C)c1cncc(C(C)C)c1OCCCNCc1cc(C(C)(C)C)c(O)c(C(C)(C)C)c1 [Compound 5]
- pIC50 [1]: 6.42

Structure (SMILES): CC(C)(C)c1cc(CNCCCOc2ccccc2)cc(C(C)(C)C)c1O [Compound 6]
- pIC50 [1]: 6.63

Structure (SMILES): CC(C)(C)c1cc(CNCCCOc2ccncc2)cc(C(C)(C)C)c1O [Compound 7]
- pIC50 [1]: 6.06

Structure (SMILES): Cc1cccc(C)c1OCCCNCc1cc(C(C)(C)C)c(O)c(C(C)(C)C)c1 [Compound 8]
- pIC50 [1]: 6.75

Structure (SMILES): Cc1cccc(C)c1OCC(C)N (stereo not shown) [Mexiletine, mexiletine, reference compound]
- pIC50 [1]: 4.96
- rate of functional recovery following SCI, BBB open-field locomotor score [3]: significantly increased the rate of recovery
- number of hind-limb foot misplacements, horizontal ladder test [4]: decreased the number of hind-limb foot misplacements
- ledge use, statistical difference from SCI+saline ([5]; 60 nmol/g, Bonferroni post-test): no significant difference from SCI+saline at any time
- use of the support ledge, ledged beam task [5]: significantly reduced
- volume of damage (H & E stained sections) [6]: reduced damage compared to SCI+saline
- GRAY MATTER spared, % MEAN ([7]; 60 nmol/g): 77.9* %
- TOTAL TISSUE spared, % MEAN ([7]; 60 nmol/g): 70.5* %
- WHITE MATTER spared, % MEAN ([7]; 60 nmol/g): 66.3* %
- No. of motor neurons Per sq mm, Mean ([8]; 0.0 mm (epicentre), 60 nmol/g): 7* Per sq mm
- No. of motor neurons Per sq mm, Mean [8, 9]: 10* Per sq mm
- No. of motor neurons Per sq mm, Mean [8, 10]: 17* Per sq mm
- No. of motor neurons Per sq mm, Mean [8, 11]: 24* Per sq mm
- No. of motor neurons Per sq mm, Mean [8, 12]: 30 Per sq mm
- No. of motor neurons Per sq mm, Mean [8, 13]: 27 Per sq mm
- loss of white matter and gray matter (rostro-caudal serial sections, neuronal cell body counts) [8]: reduced loss of both white matter and gray matter
- No. of motor neurons Per sq mm, Mean [8, 14]: 11* Per sq mm
- No. of motor neurons Per sq mm, Mean [8, 15]: 17* Per sq mm
- No. of motor neurons Per sq mm, Mean [8, 16]: 26 Per sq mm
- No. of motor neurons Per sq mm, Mean [8, 17]: 33 Per sq mm
- No. of motor neurons Per sq mm, Mean [8, 18]: 31 Per sq mm
